One molecule from US5171748A, “Benz[4,5]imidazole-containing angiotensin antagonists” (Imperial Chemical Industries plc, priority 1989, dated 1992) can be followed below.

The subject of assay [1] is angiotensin II-induced pressor responses. Description: Test C: antagonism of angiotensin II-induced pressor responses in terminally-anaesthetised or conscious rats. The assay is classed as in vivo. The note with it: Rattus norvegicus, parenteral administration. On the procedure:
Test C: This in vivo test involves using terminally-anaesthetised or conscious rats in which an arterial catheter has been implanted under anaesthesia for the measurement of changes in blood pressure. The AII antagonistic effects of the test compound following oral or parenteral administration, are assessed against angiotensin II-induced pressor responses. To ensure that the effect is specific the effect of the test compound on vasopressin-induced pressor responses may also be determined in the same preparation.

Assay [2] concerns the target T1, AII-induced contractions of isolated rabbit aorta (Oryctolagus cuniculus, UniProt P34976).
T1 construct: isolated rabbit aorta, maintained in a physiological salt solution; from tissue; host or cells: isolated rabbit aorta
T1 sequence (P34976 1-359): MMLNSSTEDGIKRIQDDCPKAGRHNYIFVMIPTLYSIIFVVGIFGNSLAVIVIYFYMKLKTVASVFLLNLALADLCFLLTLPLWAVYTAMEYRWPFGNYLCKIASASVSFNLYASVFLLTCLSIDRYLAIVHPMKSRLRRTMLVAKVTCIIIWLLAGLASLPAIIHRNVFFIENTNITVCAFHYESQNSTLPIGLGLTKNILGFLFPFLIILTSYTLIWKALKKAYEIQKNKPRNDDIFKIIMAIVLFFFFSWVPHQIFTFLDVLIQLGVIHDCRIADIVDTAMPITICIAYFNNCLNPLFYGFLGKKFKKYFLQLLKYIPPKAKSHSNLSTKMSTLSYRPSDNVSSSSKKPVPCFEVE
Nature of the assay: Test B: antagonism of AII-induced contractions of isolated rabbit aorta. The assay is classed as cell-based. Particulars: 37° C., read-out: pA2 (converted). On the procedure:
Test B: This in vitro test involves the measurement of the antagonistic effects of the test compound against AII-induced contractions of isolated rabbit aorta, maintained in a physiological salt solution at 37° C. In order to ensure that the effect of the compound is specific to antagonism of AII, the effect of the test compound on noradrenaline-induced contractions may also be determined in the same preparation.

Assay [3] deals with T2, AII receptors (cell surface membrane fraction, guinea pig adrenal gland) (Cavia porcellus, UniProt Q9WV26).
T2 construct: from tissue; host or cells: guinea pig adrenal gland, cell surface membrane fraction
T2 sequence (Q9WV26 1-359): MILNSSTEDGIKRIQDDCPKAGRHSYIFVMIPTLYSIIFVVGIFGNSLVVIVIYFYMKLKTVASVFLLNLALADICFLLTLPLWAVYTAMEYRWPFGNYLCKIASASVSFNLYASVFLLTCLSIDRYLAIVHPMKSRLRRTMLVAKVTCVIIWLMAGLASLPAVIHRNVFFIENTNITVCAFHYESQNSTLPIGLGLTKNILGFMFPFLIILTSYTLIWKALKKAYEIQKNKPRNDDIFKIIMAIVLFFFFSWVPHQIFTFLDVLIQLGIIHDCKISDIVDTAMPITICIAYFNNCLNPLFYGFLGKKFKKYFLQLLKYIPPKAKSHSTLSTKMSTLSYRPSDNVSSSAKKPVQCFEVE
Description: Test A: displacement of radiolabelled AII binding to guinea pig adrenal membrane fraction. Particulars: read-out: IC50 (concentration for 50% displacement of radiolabelled AII binding). On the procedure: Test A: This in vitro procedure involves the incubation of the test compound initially at a concentration of 100 micromolar (or less) in a buffered mixture containing fixed concentrations of radiolabelled AII and a cell surface membrane fraction prepared from a suitable angiotensin target tissue. In this test, the source of cell surface membranes is the guinea pig adrenal gland which is well known to respond to AII. Interaction of the radiolabelled AII with its receptors (assessed as radiolabel bound to the particulate membrane fraction following removal of unbound radiolabel by a rapid filtration procedure such as is standard in such studies) is antagonized by compounds which also bind to the membrane receptor sites and the degree of antagonism (observed in the test as displacement of membrane-bound radioactivity) is determined readily by comparing the receptor-bound radioactivity in the presence of the test compound at the specified test concentration with a control value determined in the absence of the test compound. Using this procedure compounds showing at least 50% displacement of radiolabelled AII binding at a concentration of 10^-4 M are retested at lower concentrations to determine their potency. […]

The structures appear in SMILES notation.

For `CCCCc1nc2ccccc2n1Cc1ccc(C(=O)NS(=O)(=O)c2ccccc2)cc1` [Example 3, 4-[(2-butyl-1H-benzimidazol-1-yl)methyl]-N-phenylsulphonylbenzamide], in assay [1], the ED50 was 3 mg/kg. In assay [2], the Kb was 25.1 nM. Also, in assay [3], the IC50 stood at 100 nM.
